# Reference: patent US20090088441A1, “Quinoline Compounds” (priority 2007, published 2009)
# Target: T1, GABABR1a/GABABR2 heterodimer (Homo sapiens, UniProt O75899+Q9UBS5)
# T1 construct: expressed in transfected cells; membrane preparation
# Experiment: GTPγS35 radioligand filtration-binding assay for determination of agonist potency
# Format: biochemical
# Details: membranes of CHO K1 Flp-In cells expressing GABABR1a/GABABR2; 30° C., 1 hour
# Description: (§1) The potency and efficacy of the compounds acting as agonists at the GABAB receptor was also determined in a automated GTPγS^35 radioligand filtration-binding assay.
# (§2) The GABAB receptor is a G-protein coupled receptor. Binding of a ligand activates the receptor leading to recruitment of G-protein and a substitution of the G-protein bound GDP to GTP. The G-protein becomes active. The G-protein is inactivated by hydrolysis of GTP to GDP. G-proteins are membrane bound and therefore present in membrane preparations.
# (§3) In the GTPγS^35 assay, GTP is not present but instead GTPγS^35 where one of the phosphate groups are substituted to a sulphur group which cannot be hydrolysed. Upon activation of the receptor, radiolabelled GTPγS^35 replaces the GDP. The complex cannot be inactivated and the radiolabelled complex is accumulating. At the end of the assay, the reaction mixture is filtered through a membrane-binding filter. Excess GTPγS^35 is removed by washing and the membrane bound S^35, which correlates to the degree of receptor activation, is measured with a β-Liquid Scintillation Counter.
# The human GABABR1a was subcloned into pIRESneo3 (Clontech) using GABABR1a construct as a template (refseqN NM001470). GABABR2 was subcloned into pcDNA5/FRT (Invitrogen) using GABABR2 construct as a template (refseqN NM005458). The Kozak sequence GCCACC was introduced before the start codon in both constructs.
# For generation of stable cell lines, CHO K1 Flp-In cells (Invitrogen) were grown in DMEM/F12 1:1 media supplemented with 10% FBS at 37° C. in a humidified CO2-incubator. The cells were detached with Accutase and 1.5 million cells were seeded into T75 flasks. After 24 h, transfection of the cells were performed with the GABABR2 construct. For generation of cell lines expressing GABABR2, GABABR2 plasmid (1 μg) and pOG44 from Invitrogen (9 μg) were mixed with 30 μl Lipofectamine 2000 in 600 μl OptiMEM for 20 minutes. The cells were exposed to transfection medium for 5 hours and was then replaced with culture medium. After 2 days 0.5 mg/ml Hygromycin were added to culture medium. The cells were cultured for an additional 10 days to establish a stable cell mix expressing GABABR2. For generation of a cell line expressing the GABABR1a/GABABR2 hetrodimer, GABABR1a plasmid DNA (8 μg) and Lipofectamine (30 μl) were mixed in 600 μl OptiMEM and incubated for 20 minutes before added to CHO-Flp-In cells expressing GABABR2. After 2 days additional selection agent was added (0.8 mg/ml Geneticin). The cells were cultured for another 10 days to generate a stable mixed population expressing the GABABR1a/GABABR2 heterodimer. The cell line was analyzed by GTPγS^35 assay with GABA as agonist.
# GTPγS^35 radioligand filtration-binding assays were performed using an automated workstation at 30° C. for 1 hour in assay buffer (50 mM HEPES, 40 mM NaCl, 1 mM MgCl2×6H2O, 30 μg/mL Saponin, pH 7.4 at RT) containing 0.025 μg/μL of membrane protein (prepared from the cell line described above), 10 μM GDP and 0.55 nCi/μL GTPγS^35 in a final volume of 60 μL. The reaction was started by the addition of compounds (GABA was always included as a positive control), start concentration 100 μM dilution factor 3. The reaction was terminated and membranes collected by addition of ice-cold wash buffer (50 mM Tris-HCl, 5 mM MgCl2×6H2O, 50 mM NaCl, pH 7.4 at 4° C.) followed by rapid filtration under vacuum through a MultiScreen HTS 384 FB filter plate. Repeated washing of the filters with ice-cold wash buffer washed the unbound radioligand away. The filter plates were dried for 1½-2 hours at 50° C., then 8 μL scintillation liquid was added per well followed by incubation at RT for at least 20 minutes before bound radioactivity was determined using a β-Liquid Scintillation Counter (1450 Microbeta Trilux, Wallac, Finland)
# 100% activation (max) is calculated as the mean value for wells containing 1 mM GABA. […]
# T1 sequence (Q9UBS5 15-961 limits assumed): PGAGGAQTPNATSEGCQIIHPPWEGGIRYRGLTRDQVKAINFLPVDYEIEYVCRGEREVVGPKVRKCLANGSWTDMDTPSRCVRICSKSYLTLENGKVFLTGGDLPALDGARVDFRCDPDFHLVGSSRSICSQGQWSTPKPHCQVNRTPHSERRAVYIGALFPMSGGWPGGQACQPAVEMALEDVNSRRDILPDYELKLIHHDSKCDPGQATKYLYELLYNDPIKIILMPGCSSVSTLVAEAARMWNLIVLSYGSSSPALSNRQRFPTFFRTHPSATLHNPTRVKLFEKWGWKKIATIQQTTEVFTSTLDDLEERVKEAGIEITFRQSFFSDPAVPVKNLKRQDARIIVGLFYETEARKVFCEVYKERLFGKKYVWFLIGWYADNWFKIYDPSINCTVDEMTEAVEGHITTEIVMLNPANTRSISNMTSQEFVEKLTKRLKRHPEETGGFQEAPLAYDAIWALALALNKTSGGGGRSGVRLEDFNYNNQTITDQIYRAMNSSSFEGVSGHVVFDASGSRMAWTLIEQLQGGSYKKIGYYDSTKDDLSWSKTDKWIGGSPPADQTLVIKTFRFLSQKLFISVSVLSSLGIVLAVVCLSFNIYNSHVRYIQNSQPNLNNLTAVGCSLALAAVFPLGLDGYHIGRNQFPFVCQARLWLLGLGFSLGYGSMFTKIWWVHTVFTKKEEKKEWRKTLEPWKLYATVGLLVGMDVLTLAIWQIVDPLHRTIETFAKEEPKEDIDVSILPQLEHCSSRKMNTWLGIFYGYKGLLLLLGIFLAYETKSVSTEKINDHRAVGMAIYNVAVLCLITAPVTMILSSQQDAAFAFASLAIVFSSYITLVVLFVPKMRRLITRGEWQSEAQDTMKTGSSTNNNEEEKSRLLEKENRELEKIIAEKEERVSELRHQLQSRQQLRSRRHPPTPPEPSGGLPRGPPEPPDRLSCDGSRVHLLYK
# T1 sequence (O75899 42-941): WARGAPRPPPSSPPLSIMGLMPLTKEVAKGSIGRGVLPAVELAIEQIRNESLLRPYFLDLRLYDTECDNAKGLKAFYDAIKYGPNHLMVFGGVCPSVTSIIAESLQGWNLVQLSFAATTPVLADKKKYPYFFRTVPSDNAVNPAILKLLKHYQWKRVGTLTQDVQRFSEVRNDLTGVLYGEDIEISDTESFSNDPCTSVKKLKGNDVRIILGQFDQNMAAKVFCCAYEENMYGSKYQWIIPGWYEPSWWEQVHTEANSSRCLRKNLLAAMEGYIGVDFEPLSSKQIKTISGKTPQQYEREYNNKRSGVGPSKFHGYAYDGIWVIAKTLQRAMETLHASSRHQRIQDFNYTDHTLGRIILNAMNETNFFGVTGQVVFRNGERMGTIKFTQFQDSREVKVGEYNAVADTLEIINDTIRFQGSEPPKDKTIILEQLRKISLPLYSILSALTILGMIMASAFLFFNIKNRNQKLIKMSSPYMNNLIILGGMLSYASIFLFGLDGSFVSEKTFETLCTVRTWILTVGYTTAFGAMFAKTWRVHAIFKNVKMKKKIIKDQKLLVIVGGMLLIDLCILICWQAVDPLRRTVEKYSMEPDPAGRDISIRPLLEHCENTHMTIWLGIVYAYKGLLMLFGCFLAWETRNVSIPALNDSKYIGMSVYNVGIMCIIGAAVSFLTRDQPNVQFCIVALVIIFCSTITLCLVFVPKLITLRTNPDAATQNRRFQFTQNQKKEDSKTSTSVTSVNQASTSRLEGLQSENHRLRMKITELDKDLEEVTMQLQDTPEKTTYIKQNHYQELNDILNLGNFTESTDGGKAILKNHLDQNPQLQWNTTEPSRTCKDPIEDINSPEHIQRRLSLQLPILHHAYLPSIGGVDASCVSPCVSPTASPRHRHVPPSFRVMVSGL
row,SMILES,EC50 [nM]
1,"Cc1nc2ccc(N3CCCCC3)cc2c(-c2ccc(F)cc2)c1COc1ccc(Cl)cc1 [Example 25, 3-[(4-chlorophenoxy)methyl]-4-(4-fluorophenyl)-2-methyl-6-piperidin-1-ylquinoline]",1100
2,"Cc1nc2ccc(N3CCCCC3)cc2c(-c2ccc(F)cc2)c1C(C)Oc1ccccc1Cl (stereo not drawn) [Example 10, 3-[1-(2-chlorophenoxy)ethyl]-4-(4-fluorophenyl)-2-methyl-6-piperidin-1-ylquinoline]",1300
3,"Cc1nc2ccc(N3CCCCC3)cc2c(-c2ccc(F)cc2)c1C(C)Oc1ccc(C#N)cc1 (stereo not drawn) [Example 6, 4-{1-[4-(4-fluorophenyl)-2-methyl-6-piperidin-1-ylquinolin-3-yl]ethoxy}benzonitrile]",2900
4,"Cc1nc2ccc(N3CCCCC3)cc2c(-c2ccc(F)cc2)c1C(C)Oc1ccc(O)cc1 (stereo not drawn) [Example 19, 4-{1-[4-(4-fluorophenyl)-2-methyl-6-piperidin-1-ylquinolin-3-yl]ethoxy}phenol]",1200
5,"Cc1nc2ccc(N3CCCCC3)cc2c(-c2ccc(F)cc2)c1C(C)Oc1cccc(C#N)c1 (stereo not drawn) [Example 7, 3-{1-[4-(4-fluorophenyl)-2-methyl-6-piperidin-1-ylquinolin-3-yl]ethoxy}benzonitrile]",1500
6,"Cc1nc2ccc(N3CCCCC3)cc2c(-c2ccc(F)cc2)c1C(C)Oc1ccc(Cl)cc1 (stereo not drawn) [Example 4, 3-[1-(4-chlorophenoxy)ethyl]-4-(4-fluorophenyl)-2-methyl-6-piperidin-1-ylquinoline]",1000
7,"Cc1nc2ccc(N3CCCCC3)cc2c(-c2ccc(F)cc2)c1C(C)Oc1ccc(S(C)(=O)=O)cc1 (stereo not drawn) [Example 8, 4-(4-fluorophenyl)-2-methyl-3-{1-[4-(methylsulfonyl)phenoxy]ethyl}-6-piperidin-1-ylquinoline]",1700
8,"Cc1nc2ccc(N3CCN(C)CC3)cc2c(-c2ccc(F)cc2)c1C(C)Oc1ccc(Cl)cc1 (stereo not drawn) [Example 17, 3-[1-(4-chlorophenoxy)ethyl]-4-(4-fluorophenyl)-2-methyl-6-(4-methylpiperazin-1-yl)quinoline]",7600
9,"Cc1nc2ccc(N3CCCCC3)cc2c(-c2ccc(F)cc2)c1C(=O)OC(C)(C)C [Example 22, tert-butyl 4-(4-fluorophenyl)-2-methyl-6-piperidin-1-ylquinoline-3-carboxylate]",1300
10,"Cc1nc2ccc(N3CCCCC3)cc2c(-c2ccc(F)cc2)c1C(C)Oc1ccccc1C(C)C (stereo not drawn) [Example 13, 4-(4-fluorophenyl)-3-[1-(2-isopropylphenoxy)ethyl]-2-methyl-6-piperidin-1-ylquinoline]",300

# More lines, now with the values ahead:
row,EC50 [nM],SMILES
1,4300,"Cc1nc2ccc(N3CCN(C)CC3)cc2c(-c2ccc(F)cc2)c1C(C)Oc1ccccc1C(C)C (stereo not drawn) [Example 18, 4-(4-fluorophenyl)-3-[1-(2-isopropylphenoxy)ethyl]-2-methyl-6-(4-methylpiperazin-1-yl)quinoline]"
2,900,"Cc1nc2ccc(N3CCCCC3)cc2c(-c2ccc(F)cc2)c1C(C)Oc1ccccc1C#N (stereo not drawn) [Example 15, 2-{1-[4-(4-fluorophenyl)-2-methyl-6-piperidin-1-ylquinolin-3-yl]ethoxy}benzonitrile]"
3,2200,"Cc1nc2ccc(N3CCCCC3)cc2c(-c2ccc(F)cc2)c1C(C)Oc1cccc(N(C)C)c1 (stereo not drawn) [Example 12, (3-{1-[4-(4-fluorophenyl)-2-methyl-6-piperidin-1-ylquinolin-3-yl]ethoxy}phenyl)dimethylamine]"
4,1600,"COc1ccc(OC(C)c2c(C)nc3ccc(N4CCCCC4)cc3c2-c2ccc(F)cc2)cc1 (stereo not drawn) [Example 11, 4-(4-fluorophenyl)-3-[1-(4-methoxyphenoxy)ethyl]-2-methyl-6-piperidin-1-ylquinoline]"
5,4500,"Cc1nc2ccc(N3CCCCC3)cc2c(-c2ccc(F)cc2)c1C(C)Oc1cccc(C(N)=O)c1 (stereo not drawn) [Example 14, 3-{1-[4-(4-fluorophenyl)-2-methyl-6-piperidin-1-ylquinolin-3-yl]ethoxy}benzamide]"
6,24000,"Cc1nc2ccc(N3CCCCC3)cc2c(-c2ccc(F)cc2)c1C(C)n1ccccc1=O (stereo not drawn) [Example 16, 1-{1-[4-(4-fluorophenyl)-2-methyl-6-piperidin-1-ylquinolin-3-yl]ethyl}pyridin-2(1H)-one]"
7,1800,"Cc1nc2ccc(N3CCCCC3)cc2c(-c2ccc(F)cc2)c1C(C)Oc1ccccn1 (stereo not drawn) [Example 5, 4-(4-fluorophenyl)-2-methyl-6-piperidin-1-yl-3-[1-(pyridin-2-yloxy)ethyl]quinoline]"
8,3000,"Cc1nc2ccc(N3CCCCC3)cc2c(-c2ccc(F)cc2)c1C(C)Oc1cccnc1 (stereo not drawn) [Example 9, 4-(4-fluorophenyl)-2-methyl-6-piperidin-1-yl-3-[1-(pyridin-3-yloxy)ethyl]quinoline]"

# Target: T2, GABAB(1A,2) receptor heterodimer (Homo sapiens, UniProt O75899+Q9UBS5)
# T2 construct: expressed in transfected cells; membrane preparation
# Experiment: GTPγS35 radioligand filtration-binding assay for determination of PAM potency
# Format: biochemical
# Details: membranes of CHO-K1 cells expressing GABABR1a/GABABR2; GABA dose-response with 10, 1, 0.1 and 0.01 μM PAM; concentration reducing GABA's EC50 by 50%; read-out: Mean (EC50 derived) PAM EC50
# Description: The effect of GABA in an automated GTPγS^35 radioligand filtration-binding assay in CHO cells expressing the GABAB(1A,2) receptor heterodimer was studied in the presence or absence of the positive allosteric modulator test compounds.
# as §1, §2, §3
# GABABR1a and GABABR2 were cloned from human brain cDNA and subcloned into pCI-Neo (Promega) and pALTER-1 (Promega), respectively.
# In order to optimise the Kozak consensus sequence of GABABR2, in situ mutagenesis was performed using the Altered Sites Mutagenesis kit according to manufacturer's instruction (Promega) with the following primer, 5′-[…]-3′. The optimised GABABR2 was then restricted from pALTER-1 with Xho I+Kpn I and subcloned into the mammalian expression vector pcDNA3.1 (−)/Zeo (Invitrogen) to produce the final construct, pcDNA3.1 (−)/Zeo-GABABR2.
# For generation of stable cell lines, CHO-K1 cells were grown in Nut mix F-12 (Ham) media supplemented with 10% FBS, 100 U/ml Penicillin and 100 μg/ml Streptomycin at 37° C. in a humidified CO2-incubator. The cells were detached with 1 mM EDTA in PBS and 1 million cells were seeded in 100 mm petri dishes. After 24 hours the culture media was replaced with OptiMEM and incubated for 1 hour in a CO2-incubator.
# For generation of a cell line expressing the GABABR1a/GABABR2 heterodimer, GABABR1a plasmid DNA ([…]) GABABR2 plasmid DNA (4 μg) and lipofectamine (24 μl) were mixed in 5 ml OptiMEM and incubated for 45 minutes at room temperature. […] After expansion, the GABAB receptor functional response was tested by measuring the GABAB receptor dependent release of intracellular calcium in a fluorescence imaging plate reader (FLIPR). […]
# T2 sequence (Q9UBS5 15-961 limits assumed): as the sequence (Q9UBS5 15-961 limits assumed) above
# T2 sequence (O75899 42-941): as the sequence (O75899 42-941) above
row,EC50 [µM],SMILES
1,24,"Cc1nc2ccc(N3CCCCC3)cc2c(-c2ccc(F)cc2)c1C(C)Oc1ccc(Cl)cc1 (stereo not drawn) [Example 4, 3-[1-(4-chlorophenoxy)ethyl]-4-(4-fluorophenyl)-2-methyl-6-piperidin-1-ylquinoline]"
2,3.1,"Cc1nc2ccc(Br)cc2c(-c2ccc(F)cc2)c1C(=O)OC(C)(C)C [Example 20, tert-butyl 6-bromo-4-(4-fluorophenyl)-2-methylquinoline-3-carboxylate]"
3,18,"Cc1nc2ccc(N3CCCCC3)cc2c(-c2ccc(F)cc2)c1C(=O)OC(C)(C)C [Example 22, tert-butyl 4-(4-fluorophenyl)-2-methyl-6-piperidin-1-ylquinoline-3-carboxylate]"
